Activity calls are given as the source filed them. The rule behind the calls is not given here.
Experiments:
[1] = target: Vascular endothelial growth factor receptor 2 (Homo sapiens, UniProt P35968)
Description: Inhibition of VEGFR2 (unknown origin) using FAM-labeled peptide as substrate preincubated for 10 mins followed by substrate addition in presence of ATP by mobility shift assay

[2] = target: T1, Platelet-derived growth factor receptor alpha (Homo sapiens, UniProt P16234); assay: Inhibition of PDGFRalpha (unknown origin) using FAM-labeled peptide as substrate preincubated for 10 mins followed by substrate addition in presence of ATP by mobility shift assay
[3] = target: Fibroblast growth factor receptor 1 (Homo sapiens, UniProt P11362); assay: Inhibition of FGFR1 (unknown origin) using FAM-labeled peptide as substrate preincubated for 10 mins followed by substrate addition in presence of ATP by mobility shift assay
[4] = target: T2, Mast/stem cell growth factor receptor Kit (Homo sapiens, UniProt P10721)
Description: Inhibition of TEL-fused cKIT (unknown origin) expressed in mouse BAF3 cells assessed as cell growth inhibition after 72 hrs by cell titer-glo assay

[5] = system: Mast/stem cell growth factor receptor Kit (Homo sapiens), P10721 [T670I]
Description: Inhibition of TEL-fused cKIT T670I mutant (unknown origin) expressed in mouse BAF3 cells assessed as cell growth inhibition after 72 hrs by cell titer-glo assay

[6] = target: T1, Platelet-derived growth factor receptor alpha
Description: Inhibition of TEL-fused PDGFRalpha (unknown origin) expressed in mouse BAF3 cells assessed as cell growth inhibition after 72 hrs by cell titer-glo assay

[7] = system: Platelet-derived growth factor receptor alpha (Homo sapiens), P16234 [T674I]
Description: Inhibition of TEL-fused PDGFRalpha T674I mutant (unknown origin) expressed in mouse BAF3 cells assessed as cell growth inhibition after 72 hrs by cell titer-glo assay

[8] = target: T2, Mast/stem cell growth factor receptor Kit; remark: listed apart in the source
Description: Inhibition of cKIT (unknown origin) using FAM-labeled peptide as substrate preincubated for 10 mins followed by substrate addition in presence of ATP by mobility shift assay

[9] = target: Vascular endothelial growth factor receptor 1 (Homo sapiens, UniProt P17948); assay: Inhibition of VEGFR1 (unknown origin) using FAM-labeled peptide as substrate preincubated for 10 mins followed by substrate addition in presence of ATP by mobility shift assay
[10] = target: Receptor-type tyrosine-protein kinase FLT3 (Homo sapiens, UniProt P36888); assay: Inhibition of FLT3 (unknown origin) using FAM-labeled peptide as substrate preincubated for 10 mins followed by substrate addition in presence of ATP by mobility shift assay
[11] = target: Vascular endothelial growth factor receptor 3 (Homo sapiens, UniProt P35916); assay: Inhibition of VEGFR3 (unknown origin) using FAM-labeled peptide as substrate preincubated for 10 mins followed by substrate addition in presence of ATP by mobility shift assay
[12] = target: Platelet-derived growth factor receptor beta (Homo sapiens, UniProt P09619); assay: Inhibition of PDGFRbeta (unknown origin) using FAM-labeled peptide as substrate preincubated for 10 mins followed by substrate addition in presence of ATP by mobility shift assay
[13] = system: MEG-01; assay: Antiproliferative activity against human MEG01 cells assessed as cell growth inhibition after 72 hrs by cell titer-glo assay; type: functional; details: MEG-01, 72 h
[14] = system: BaF3; details: Mus musculus
Description: Antitumor activity against mouse BAF3 cells harboring TEL-cKIT-T670I mutant allografted in nu/nu mouse assessed as tumor growth inhibition at 100 mg/kg, ip administered daily for 11 days relative to control

[15] = system: Mast/stem cell growth factor receptor Kit (Homo sapiens), P10721 [V654A]
Description: Inhibition of TEL-fused cKIT V654A mutant (unknown origin) expressed in mouse BAF3 cells assessed as cell growth inhibition after 72 hrs by cell titer-glo assay

[16] = system: GISTT1; assay: Antitumor activity against human GISTT1 cells xenografted in nu/nu mouse assessed as tumor growth inhibition at 100 mg/kg, ip administered daily for 28 days relative to control; type: functional; details: 672 h, read-out: TGI
[17] = system: KU812 cell line; assay: Antiproliferative activity against human KU812 cells assessed as cell growth inhibition after 72 hrs by cell titer-glo assay; type: functional; details: KU812, 72 h
[18] = Antiproliferative activity against CHL cells assessed as cell growth inhibition after 72 hrs by cell titer-glo assay; type: cell-based, Cricetulus griseus; details: chinese hamster
[19] = Antiproliferative activity against CHO cells assessed as cell growth inhibition after 72 hrs by cell titer-glo assay; type: cell-based, Cricetulus griseus; details: chinese hamster
[20] = system: GIST882; assay: Antiproliferative activity against human GIST882 cells assessed as cell growth inhibition after 72 hrs by cell titer-glo assay; type: functional; details: GIST882, 72 h
[21] = Antiproliferative activity against human GIST48B cells assessed as cell growth inhibition after 72 hrs by cell titer-glo assay; type: functional
[22] = system: Mast/stem cell growth factor receptor Kit (Homo sapiens), P10721 [L576P]
Description: Inhibition of TEL-fused cKIT L576P mutant (unknown origin) expressed in mouse BAF3 cells assessed as cell growth inhibition after 72 hrs by cell titer-glo assay

[23] = system: Mast/stem cell growth factor receptor Kit (Homo sapiens), P10721 [A829P]
Description: Inhibition of TEL-fused cKIT A829P mutant (unknown origin) expressed in mouse BAF3 cells assessed as cell growth inhibition after 72 hrs by cell titer-glo assay

[24] = system: GISTT1; assay: Antiproliferative activity against human GISTT1 cells assessed as cell growth inhibition after 72 hrs by cell titer-glo assay; type: functional; details: GISTT1, 72 h
[25] = system: Mast/stem cell growth factor receptor Kit (Homo sapiens), P10721 [V559D,V654A]
[26] = Antiproliferative activity against mouse BAF3 cells assessed as cell growth inhibition after 72 hrs by cell titer-glo assay; type: cell-based
[27] = system: Mast/stem cell growth factor receptor Kit (Homo sapiens), P10721 [N822K]
Description: Inhibition of TEL-fused cKIT N822K mutant (unknown origin) expressed in mouse BAF3 cells assessed as cell growth inhibition after 72 hrs by cell titer-glo assay

[28] = system: Mast/stem cell growth factor receptor Kit (Homo sapiens), P10721 [C674S]
Description: Inhibition of TEL-fused cKIT C674S mutant (unknown origin) expressed in mouse BAF3 cells assessed as cell growth inhibition after 72 hrs by cell titer-glo assay

Sequence of Mast/stem cell growth factor receptor Kit (Homo sapiens), P10721 [T670I] (P10721 whole entry T670I): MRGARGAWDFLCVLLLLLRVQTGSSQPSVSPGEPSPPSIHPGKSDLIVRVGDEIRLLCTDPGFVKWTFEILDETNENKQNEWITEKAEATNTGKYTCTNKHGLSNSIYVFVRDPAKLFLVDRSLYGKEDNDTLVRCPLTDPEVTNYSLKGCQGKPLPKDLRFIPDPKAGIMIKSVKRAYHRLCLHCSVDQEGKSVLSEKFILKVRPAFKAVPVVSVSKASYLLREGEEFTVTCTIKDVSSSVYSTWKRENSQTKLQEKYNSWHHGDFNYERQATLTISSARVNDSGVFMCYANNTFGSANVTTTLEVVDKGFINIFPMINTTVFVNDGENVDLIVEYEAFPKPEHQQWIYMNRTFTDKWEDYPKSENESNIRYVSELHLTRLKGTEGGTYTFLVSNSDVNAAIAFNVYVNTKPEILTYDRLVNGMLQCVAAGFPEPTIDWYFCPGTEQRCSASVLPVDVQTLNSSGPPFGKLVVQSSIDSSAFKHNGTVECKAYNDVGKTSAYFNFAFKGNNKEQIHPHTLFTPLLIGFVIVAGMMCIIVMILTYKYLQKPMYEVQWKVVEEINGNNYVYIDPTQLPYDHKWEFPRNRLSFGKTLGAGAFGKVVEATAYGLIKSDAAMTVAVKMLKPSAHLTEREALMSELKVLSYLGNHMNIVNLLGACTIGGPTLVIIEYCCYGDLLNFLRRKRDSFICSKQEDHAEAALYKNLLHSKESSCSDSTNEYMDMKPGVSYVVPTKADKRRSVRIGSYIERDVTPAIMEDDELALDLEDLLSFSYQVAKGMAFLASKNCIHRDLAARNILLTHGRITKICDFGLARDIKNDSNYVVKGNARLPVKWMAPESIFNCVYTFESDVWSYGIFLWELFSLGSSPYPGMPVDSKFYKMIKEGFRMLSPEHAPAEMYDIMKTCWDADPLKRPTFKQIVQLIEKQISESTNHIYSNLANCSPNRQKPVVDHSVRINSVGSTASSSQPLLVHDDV
T2 sequence (P10721 whole entry): as the sequence (P10721 whole entry T670I) above, with I670T counted along it
Sequence of Vascular endothelial growth factor receptor 2 (P35968 whole entry): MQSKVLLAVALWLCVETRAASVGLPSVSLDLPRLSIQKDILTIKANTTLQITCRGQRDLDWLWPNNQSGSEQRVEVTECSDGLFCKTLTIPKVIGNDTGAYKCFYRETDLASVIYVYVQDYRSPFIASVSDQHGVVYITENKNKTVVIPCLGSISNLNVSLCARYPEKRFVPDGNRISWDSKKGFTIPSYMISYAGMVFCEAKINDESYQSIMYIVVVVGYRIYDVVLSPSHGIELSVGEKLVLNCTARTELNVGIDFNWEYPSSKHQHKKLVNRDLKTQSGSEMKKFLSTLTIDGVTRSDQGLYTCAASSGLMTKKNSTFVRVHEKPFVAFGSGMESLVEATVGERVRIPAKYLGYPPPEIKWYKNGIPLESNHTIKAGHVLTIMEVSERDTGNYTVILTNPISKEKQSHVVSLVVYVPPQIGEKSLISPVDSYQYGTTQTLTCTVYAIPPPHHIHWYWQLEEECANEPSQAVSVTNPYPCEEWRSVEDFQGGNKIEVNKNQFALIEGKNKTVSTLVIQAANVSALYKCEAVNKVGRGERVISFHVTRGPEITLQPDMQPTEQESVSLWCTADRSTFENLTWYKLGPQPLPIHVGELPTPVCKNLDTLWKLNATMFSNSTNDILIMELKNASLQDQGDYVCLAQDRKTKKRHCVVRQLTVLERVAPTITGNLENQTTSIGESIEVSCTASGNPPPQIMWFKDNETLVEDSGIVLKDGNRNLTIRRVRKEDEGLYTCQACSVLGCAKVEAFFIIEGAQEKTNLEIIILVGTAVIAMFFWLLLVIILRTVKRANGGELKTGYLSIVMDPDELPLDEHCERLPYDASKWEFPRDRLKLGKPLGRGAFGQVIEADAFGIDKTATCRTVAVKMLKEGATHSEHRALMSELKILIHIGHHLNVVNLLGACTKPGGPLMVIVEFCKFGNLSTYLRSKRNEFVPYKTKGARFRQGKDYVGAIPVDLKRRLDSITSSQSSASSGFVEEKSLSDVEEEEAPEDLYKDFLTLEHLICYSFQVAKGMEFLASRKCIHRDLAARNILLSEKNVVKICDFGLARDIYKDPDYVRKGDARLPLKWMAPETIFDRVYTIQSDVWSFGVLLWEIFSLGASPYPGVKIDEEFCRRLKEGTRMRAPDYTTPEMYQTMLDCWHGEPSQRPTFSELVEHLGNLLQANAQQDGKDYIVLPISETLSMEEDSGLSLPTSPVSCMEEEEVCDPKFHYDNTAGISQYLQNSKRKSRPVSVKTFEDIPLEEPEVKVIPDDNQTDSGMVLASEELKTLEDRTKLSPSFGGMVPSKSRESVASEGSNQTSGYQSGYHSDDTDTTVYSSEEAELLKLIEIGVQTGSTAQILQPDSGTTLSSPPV
Sequence of Fibroblast growth factor receptor 1 (P11362 whole entry): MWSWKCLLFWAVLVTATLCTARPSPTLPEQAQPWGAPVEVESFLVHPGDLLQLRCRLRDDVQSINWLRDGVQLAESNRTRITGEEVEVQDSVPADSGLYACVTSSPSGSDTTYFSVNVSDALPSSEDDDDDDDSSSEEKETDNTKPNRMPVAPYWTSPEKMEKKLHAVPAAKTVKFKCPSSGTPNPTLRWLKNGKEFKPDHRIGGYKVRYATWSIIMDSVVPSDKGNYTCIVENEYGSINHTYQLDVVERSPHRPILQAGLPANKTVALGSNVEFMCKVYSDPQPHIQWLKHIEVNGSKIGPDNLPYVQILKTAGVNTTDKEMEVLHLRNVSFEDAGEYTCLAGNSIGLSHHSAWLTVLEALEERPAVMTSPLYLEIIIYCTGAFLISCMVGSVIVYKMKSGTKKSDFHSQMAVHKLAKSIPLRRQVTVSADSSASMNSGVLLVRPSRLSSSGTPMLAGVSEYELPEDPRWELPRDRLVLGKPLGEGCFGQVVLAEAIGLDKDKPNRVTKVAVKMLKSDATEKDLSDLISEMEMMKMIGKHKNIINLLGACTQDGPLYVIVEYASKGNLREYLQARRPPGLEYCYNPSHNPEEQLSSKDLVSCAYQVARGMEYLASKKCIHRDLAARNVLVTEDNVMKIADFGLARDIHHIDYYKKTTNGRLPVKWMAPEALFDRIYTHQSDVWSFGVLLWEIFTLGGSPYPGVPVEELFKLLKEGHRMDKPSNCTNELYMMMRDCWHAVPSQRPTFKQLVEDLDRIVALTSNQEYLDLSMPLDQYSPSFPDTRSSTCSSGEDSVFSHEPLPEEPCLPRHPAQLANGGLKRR
Sequence of Mast/stem cell growth factor receptor Kit (Homo sapiens), P10721 [A829P] (P10721 whole entry A829P): as the sequence (P10721 whole entry T670I) above, with I670T, A829P counted along it

Compound | IC50 [1] [nM] | IC50 [2] [nM] | IC50 [3] [nM] | GI50 [4] [nM] | GI50 [5] [nM] | GI50 [6] [nM] | GI50 [7] [nM] | other results
Cc1n[nH]c2nccc(-c3ccc(NC(=O)Nc4cccc(C(F)(F)F)c4)cc3)c12 | 1920 | 106 | > 50000 | – | – | – | – | –
Cc1n[nH]c2nccc(-c3ccc(NC(=S)Nc4cccc(C(F)(F)F)c4)cc3)c12 | 8010 | 1570 | 42900 | – | – | – | – | –
Cc1ccc(F)c(NC(=O)Nc2ccc(C3CC(O)=Nc4[nH]nc(C)c43)cc2)c1 (stereo not drawn) | > 50000 | > 50000 | 33800 | > 10000 | > 10000 | 4250 | > 10000 | –
Cc1cccc(NC(=O)Nc2ccc(-c3ccnc4[nH]nc(C)c34)cc2)c1 | 1230 | 40 | > 50000 | 248 | 318 | 10.4 | 1170 | IC50 [8]: 2.1 nM; IC50 [9]: 3490 nM; IC50 [10]: 1880 nM; IC50 [11]: 376 nM; IC50 [12]: 197 nM
Cc1ccc(NC(=O)c2ccc(CN3CCN(C)CC3)cc2)cc1Nc1nccc(-c2cccnc2)n1 [IMATINIB] | – | – | – | – | – | – | > 10000 | GI50 [13]: 45 nM; TGI [14]: inactive; GI50 [15]: 803 nM; inhibition in vivo at 100 mg/kg [16]: 87.3%; GI50 [17]: 110 nM; GI50 at 72 h [18]: > 10000 nM; GI50 at 72 h [19]: > 10000 nM; GI50 [20]: 20 nM; GI50 [21]: 6990 nM; GI50 [22]: 45.1 nM; GI50 [23]: 148 nM; GI50 [24]: 3 nM; GI50 [25]: 803 nM; GI50 at 72 h [26]: 4690 nM; GI50 [27]: 1470 nM; GI50 [28]: 24.9 nM
Cc1n[nH]c2nccc(-c3ccc(NC(=O)Nc4cccc(Br)c4)cc3)c12 | 3150 | 137 | > 50000 | – | – | – | – | –
Cc1cccc(NC(=O)Nc2ccc(C3CC(O)=Nc4[nH]nc(C)c43)cc2)c1 (stereo not drawn) | > 50000 | > 50000 | 18300 | – | – | – | – | –
Cc1n[nH]c2nccc(-c3ccc(NC(=S)Nc4cccc(Br)c4)cc3)c12 | 6240 | 1080 | 20000 | – | – | – | – | –
Cc1cccc(NC(=O)Nc2ccc(-c3cc(O)nc4[nH]nc(C)c34)cc2)c1 | 1220 | 560 | 2260 | – | – | – | – | –
Cc1ccc(F)c(NC(=O)Nc2ccc(-c3ccnc4[nH]nc(C)c34)cc2)c1 | 4290 | 87 | > 50000 | – | – | – | – | –
Cc1ccc(F)c(NC(=O)Nc2ccc(-c3cc(O)nc4[nH]nc(C)c34)cc2)c1 | 1860 | 1180 | 4640 | > 10000 | > 10000 | 204 | > 10000 | –
Cc1n[nH]c2nccc(-c3ccc(NC(=O)NCCCc4ccccc4)cc3)c12 | 3860 | 24 | – | 3020 | 1670 | 10.4 | 2050 | IC50 [8]: 1.7 nM
Cc1n[nH]c2nccc(-c3ccc(NC(=O)NC4CCCC4)cc3)c12 | 6230 | 576 | – | > 10000 | > 10000 | 13.3 | > 10000 | IC50 [8]: 144 nM
